Laboratory results as given in patent US4616010A, “Imidazodiazepine derivatives” (Hoffmann-La Roche Inc., priority 1985, dated 1986).

What was measured:
[1] = target: central benzodiazepine receptors; assay: inhibition of the binding of tritiated diazepam at the specific benzodiazepine receptors in the cerebral cortex
Description: The affinity of compounds of formula I to the central benzodiazepine receptors has been determined according to the method described in Life Science 20, 2101-2110 (1977) and Science 198, 849-851 (1977). According to this method, the inhibition of the binding of tritiated diazepam at the specific benzodiazepine receptors in the cerebral cortex by the respective test substances is ascertained. The IC50 ("50% inhibiting concentration") is that concentration of the respective test substance which brings about a 50 percent inhibition of the specific binding of the tritiated diazepam at the specific benzodiazepine receptors in the cerebral cortex.

[2] = acute toxicity, single oral administration to mice; conditions: mouse, in vivo
Description: The results obtained with representative members of the class of compounds defined by formula I in the experiments described previously are compiled in the following Table. Moreover, the Table contains data concerning the acute toxicity of some of these compounds (LD50 in mg/kg in the case of single oral administration to mice).

[3] = test system: spasmodic seizures caused by pentetrazole; assay: antipentetrazole test (anticonvulsant activity); format: in vivo; conditions: Rattus norvegicus, po; female rats 60-80 g; compound orally 30 min before pentetrazole 120 mg/kg i.p.; dose protecting 50%, Probit method
Protocol: The central properties of the compounds of formula I in accordance with the invention can be determined, for example, in the antipentetrazole test described hereinafter, which is generally recognized for recording anticonvulsant properties.
In this animal experiment, the compound under investigation is administered orally to female rats weighing 60-80 g and 30 minutes later there are administered i.p. 120 mg/kg of pentetrazole, which causes emprosthotonus and tonic stretchings of the fore and/or hind limbs in unprotected experimental animals 1-4 minutes after the injection. Ten experimental animals are used per dosage of test substance. After counting the protected experimental animals, the ED50 is determined according to the Probit method. The ED50 is that dosage which protects 50% of the experimental animals from the spasmodic seizures caused by pentetrazole.

| Structure (SMILES) | IC50 [1] [nM] | LD50 [2] [mg/kg] | ED50 [3] [mg/kg] |
| --- | --- | --- | --- |
| O=C1c2c(Cl)cccc2-n2cnc(-c3cccc(Cl)c3)c2[C@@H]2CCCN12 [A] | 4.2 | 2500 to 5000 | 2.1 |
| O=C1c2c(Cl)cccc2-n2cnc(-c3cccc(C(F)(F)F)c3)c2[C@@H]2CCCN12 [B, (S)-8-chloro-11,12,13,13a-tetrahydro-1-(α,α,α-trifluoro-m-tolyl)-9H-imidazo[1,5-a]pyrrolo[2,1-c][1,4]benzodiazepin-9-one] | 40 | 2500 to 5000 | 4 |
